Data published in US9133154B2, “Substituted 3-phenylpropylamine derivatives for the treatment of ophthalmic diseases and disorders” (Acucela Inc., priority 2013, dated 2015).

System: isomerase (recovery of 11-cis-retinal after bleaching)
Assay: In vivo murine isomerase assay
Conditions: mice, oral gavage
Experimental: The capability of compounds described herein to inhibit isomerase was determined by an in vivo murine isomerase assay. […] The recovery of 11-cis-retinal after bleaching can be used to estimate the activity of isomerase in vivo. Delayed recovery, as represented by lower 11-cis-retinal oxime levels, indicates inhibition of isomerization reaction.
Mice were gavaged with the test compound. […] The mice were allowed to recover 2 hours in the dark. The animals were then sacrificed by carbon dioxide inhalation. Retinoids were extracted from the eye and the regeneration of 11-cis-retinal was assessed at various time intervals.
After the mice were sacrificed, the eyes were immediately removed and placed in liquid nitrogen for storage.
The eyes were placed in 500 μL of bis-tris propane buffer (10 mM, pH˜7.3) and 20 μL of 0.8M hydroxile amine (pH˜7.3). The eyes were cut up into small pieces with small iris scissors and then thoroughly homogenized at 30000 rpm with a mechanical homogenizer (Polytron PT 1300 D) in the tube until no visible tissue remained. 500 μL of methanol and 500 μL of heptane were added to each tube. The tubes were attached to a vortexer so that the contents were mixed thoroughly for 15 minutes in room temperature. The organic phase was separated from the aqueous phase by centrifugation for 10 min at 13K rpm, 4° C. 240 μL of the solution from the top layer (organic phase) was removed and transferred to clean 300 μl glass inserts in HPLC vials using glass pipette and the vials were crimped shut tightly.
The samples were analyzed on an Agilent 1100 HPLC system with normal phase column: SILICA (Beckman Coutlier, dp 5 μm, 4.6 mM×250 mM). […] Loading volume for each sample was 100 μA detection wavelength was 360 nm. The area under the curve for 11-cis retinal oxime was calculated by Agilent Chemstation software and was recorded manually. Data processing was performed using Prizm software.
Positive control mice (no compound administered) were sacrificed fully dark-adapted and the eye retinoids analyzed. Light (bleached) control mice (no compound administered) were sacrificed and retinoids isolated and analyzed immediately after light treatment.
A time course study was performed to determine the isomerase inhibitory activity of the test compound. […] The animals were then “photo-bleached” (5000 Lux white light for 10 minutes) at 2, 4, 8, 16 and 24 hours after dosing, and returned to darkness to allow recovery of the 11-cis-retinal content of the eyes. Mice were sacrificed 2 hours after bleaching, eyes were enucleated, and retinoid content is analyzed by HPLC.
Recovery control mice (vehicle-only treated) were light-treated and left to recover for 2 hours in the dark before sacrifice and analysis. Light control mice (vehicle only treated) were sacrificed for analysis immediately after photo-bleaching.
An in vivo dose response isomerase inhibition study was performed with test compound. […] Recovery and retinoid analysis were performed as described above. Dark control mice were vehicle-only treated, sacrificed fully dark adapted without light treatment, and analyzed. Recovery control mice and light control mice were included in the study as per the initial phase.

## NCC[C@@H](O)c1cccc(OCC2CCOCC2)c1 [Example 1]
Dose 0.3 mg/kg, time 2 h
  % Inhibition: 40.2%
Dose 1 mg/kg, time 2 h
  % Inhibition: 96.7%
Dose 1 mg/kg, time 4 h
  % Inhibition: 92.8%
